PMC10436550, “Subacute toxicity evaluations of LPM3480392 in rats, a full µ-opioid receptor biased agonist” (Frontiers in Pharmacology, 2023)

Experiment: Body weight, 4-week subacute toxicity study
Assay type: in vivo, Sprague Dawley (SD) rats
Experimental: Body weight was recorded twice a week during the dosing phase and then once a week during the recovery phase. Terminal body weight was recorded before each necropsy for calculating the organ weight ratios.

[1] = female rats, 0.6 mg/kg/day, Day 6
[2] = female rats, 0.6 mg/kg/day, Day 9
[3] = female rats, 0.6 mg/kg/day, Day 13
[4] = female rats, 0.6 mg/kg/day, Day 16
[5] = female rats, 0.6 mg/kg/day, Day 20
[6] = female rats, 0.6 mg/kg/day, Day 23
[7] = female rats, 0.6 mg/kg/day, Day 27
[8] = female rats, 0.6 mg/kg/day, Prior to 1st dosing
[9] = female rats, 0.6 mg/kg/day, Recovery day 5
[10] = female rats, 0.6 mg/kg/day, Recovery day 12
[11] = female rats, 0.6 mg/kg/day, Recovery day 19
[12] = female rats, 0.6 mg/kg/day, Recovery day 26
[13] = female rats, 1.2 mg/kg/day, Day 6
[14] = female rats, 1.2 mg/kg/day, Day 9
[15] = female rats, 1.2 mg/kg/day, Day 13
[16] = female rats, 1.2 mg/kg/day, Day 16
[17] = female rats, 1.2 mg/kg/day, Day 20
[18] = female rats, 1.2 mg/kg/day, Day 23
[19] = female rats, 1.2 mg/kg/day, Day 27
[20] = female rats, 1.2 mg/kg/day, Prior to 1st dosing
[21] = female rats, 1.2 mg/kg/day, Recovery day 5
[22] = female rats, 1.2 mg/kg/day, Recovery day 12
[23] = female rats, 1.2 mg/kg/day, Recovery day 19
[24] = female rats, 1.2 mg/kg/day, Recovery day 26
[25] = female rats, 2.4 mg/kg/day, Day 6
[26] = female rats, 2.4 mg/kg/day, Day 9
[27] = female rats, 2.4 mg/kg/day, Day 13
[28] = female rats, 2.4 mg/kg/day, Day 16
[29] = female rats, 2.4 mg/kg/day, Day 20
[30] = female rats, 2.4 mg/kg/day, Day 23
[31] = female rats, 2.4 mg/kg/day, Day 27
[32] = female rats, 2.4 mg/kg/day, Prior to 1st dosing
[33] = female rats, 2.4 mg/kg/day, Recovery day 5
[34] = female rats, 2.4 mg/kg/day, Recovery day 12
[35] = female rats, 2.4 mg/kg/day, Recovery day 19
[36] = female rats, 2.4 mg/kg/day, Recovery day 26
[37] = male rats, 0.6 mg/kg/day, Day 6
[38] = male rats, 0.6 mg/kg/day, Day 9
[39] = male rats, 0.6 mg/kg/day, Day 13
[40] = male rats, 0.6 mg/kg/day, Day 16
[41] = male rats, 0.6 mg/kg/day, Day 20
[42] = male rats, 0.6 mg/kg/day, Day 23
[43] = male rats, 0.6 mg/kg/day, Day 27
[44] = male rats, 0.6 mg/kg/day, Prior to 1st dosing
[45] = male rats, 0.6 mg/kg/day, Recovery day 5
[46] = male rats, 0.6 mg/kg/day, Recovery day 12
[47] = male rats, 0.6 mg/kg/day, Recovery day 19
[48] = male rats, 0.6 mg/kg/day, Recovery day 26
[49] = male rats, 1.2 mg/kg/day, Day 6
[50] = male rats, 1.2 mg/kg/day, Day 9
[51] = male rats, 1.2 mg/kg/day, Day 13
[52] = male rats, 1.2 mg/kg/day, Day 16
[53] = male rats, 1.2 mg/kg/day, Day 20
[54] = male rats, 1.2 mg/kg/day, Day 23
[55] = male rats, 1.2 mg/kg/day, Day 27
[56] = male rats, 1.2 mg/kg/day, Prior to 1st dosing
[57] = male rats, 1.2 mg/kg/day, Recovery day 5
[58] = male rats, 1.2 mg/kg/day, Recovery day 12
[59] = male rats, 1.2 mg/kg/day, Recovery day 19
[60] = male rats, 1.2 mg/kg/day, Recovery day 26
[61] = male rats, 2.4 mg/kg/day, Day 6
[62] = male rats, 2.4 mg/kg/day, Day 9
[63] = male rats, 2.4 mg/kg/day, Day 13
[64] = male rats, 2.4 mg/kg/day, Day 16
[65] = male rats, 2.4 mg/kg/day, Day 20
[66] = male rats, 2.4 mg/kg/day, Day 23
[67] = male rats, 2.4 mg/kg/day, Day 27
[68] = male rats, 2.4 mg/kg/day, Prior to 1st dosing
[69] = male rats, 2.4 mg/kg/day, Recovery day 5
[70] = male rats, 2.4 mg/kg/day, Recovery day 12
[71] = male rats, 2.4 mg/kg/day, Recovery day 19
[72] = male rats, 2.4 mg/kg/day, Recovery day 26

With `Fc1ccc([C@]2(CCNCc3cccc(Cl)c3)CCO[C@]3(CCOC3)C2)nc1` [LPM3480392] the Body weight [1] was 194.0 ± 11.4 g, the “Body weight change rate” value [1] was 4.64% and the Body weight [2] was 201.1 ± 13.7 g. For the same compound, the “Body weight change rate” value [2] was 5.62%, the Body weight [3] was 209.5 ± 13.4 g and the “Body weight change rate” value [3] was 7.05%. For the same compound, the Body weight [4] was 214.4 ± 13.2 g, the “Body weight change rate” value [4] was 6.19% and the Body weight [5] was 224.2 ± 15.1 g. The “Body weight change rate” value [5] was 6.91%, the Body weight [6] was 228.1 ± 15.3 g and the “Body weight change rate” value [6] was 5.65%. The Body weight [7] was 236.2 ± 15.3 g, the “Body weight change rate” value [7] was 8.05% and the Body weight [8] was 176.9 ± 7.3 g. The “Body weight change rate” value [8] was −0.67%, the Body weight [9] was 243.5 ± 9.3 g and the “Body weight change rate” value [9] was 5.96%. For the same compound, the Body weight [10] was 251.6 ± 10.2 g, the “Body weight change rate” value [10] was 6.38% and the Body weight [11] was 258.8 ± 12.5 g. The “Body weight change rate” value [11] was 2.70%, the Body weight [12] was 265.5 ± 15.7 g and the “Body weight change rate” value [12] was 3.11%. For the same compound, the Body weight [13] was 194.9 ± 10.5 g, the “Body weight change rate” value [13] was 5.12% and the Body weight [14] was 200.1 ± 12.1 g. The “Body weight change rate” value [14] was 5.09%, the Body weight [15] was 215.3 ± 11.3 g and the “Body weight change rate” value [15] was 10.02%. The Body weight [16] was 218.9 ± 12.3 g, the “Body weight change rate” value [16] was 8.42% and the Body weight [17] was 221.5 ± 14.8 g. The “Body weight change rate” value [17] was 5.63%, the Body weight [18] was 232.4 ± 16.4 g and the “Body weight change rate” value [18] was 7.64%. For the same compound, the Body weight [19] was 237.2 ± 15.4 g, the “Body weight change rate” value [19] was 8.51% and the Body weight [20] was 175.3 ± 7.7 g. For the same compound, the “Body weight change rate” value [20] was −1.57%, the Body weight [21] was 237.7 ± 13.0 g and the “Body weight change rate” value [21] was 3.44%. The Body weight [22] was 244.8 ± 13.2 g, the “Body weight change rate” value [22] was 3.51% and the Body weight [23] was 259.9 ± 16.5 g. For the same compound, the “Body weight change rate” value [23] was 3.13%, the Body weight [24] was 261.8 ± 22.7 g and the “Body weight change rate” value [24] was 1.67%. For the same compound, the Body weight [25] was 194.7 ± 11.9 g, the “Body weight change rate” value [25] was 5.02% and the Body weight [26] was 198.8 ± 14.7 g. The “Body weight change rate” value [26] was 4.41%, the Body weight [27] was 211.2 ± 13.0 g and the “Body weight change rate” value [27] was 7.92%. The Body weight [28] was 209.1 ± 13.2 g, the “Body weight change rate” value [28] was 3.57% and the Body weight [29] was 220.8 ± 15.5 g. For the same compound, the “Body weight change rate” value [29] was 5.29%, the Body weight [30] was 221.7 ± 19.8 g and the “Body weight change rate” value [30] was 2.69%. For the same compound, the Body weight [31] was 230.9 ± 19.3 g, the “Body weight change rate” value [31] was 5.63% and the Body weight [32] was 179.1 ± 8.3 g. For the same compound, the “Body weight change rate” value [32] was 0.56%, the Body weight [33] was 230.1 ± 19.1 g and the “Body weight change rate” value [33] was 0.13%. The Body weight [34] was 241.1 ± 21.0 g, the “Body weight change rate” value [34] was 1.95% and the Body weight [35] was 253.1 ± 25.8 g. The “Body weight change rate” value [35] was 0.44%, the Body weight [36] was 261.1 ± 25.5 g and the “Body weight change rate” value [36] was 1.40%. For the same compound, the Body weight [37] was 247.1 ± 9.6 g, the “Body weight change rate” value [37] was 1.31% and the Body weight [38] was 268.8 ± 11.6 g. For the same compound, the “Body weight change rate” value [38] was 2.32%, the Body weight [39] was 292.6 ± 13.5 g and the “Body weight change rate” value [39] was 0.62%. The Body weight [40] was 300.8 ± 12.5 g, the “Body weight change rate” value [40] was −2.12% and the Body weight [41] was 321.4 ± 15.8 g. For the same compound, the “Body weight change rate” value [41] was −0.22%, the Body weight [42] was 332.6 ± 17.3 g and the “Body weight change rate” value [42] was −0.33%. The Body weight [43] was 349.9 ± 20.1 g, the “Body weight change rate” value [43] was −0.20% and the Body weight [44] was 213.2 ± 11.1 g. For the same compound, the “Body weight change rate” value [44] was 0.66%, the Body weight [45] was 367.7 ± 23.5 g and the “Body weight change rate” value [45] was −4.86%. For the same compound, the Body weight [46] was 395.5 ± 24.5 g, the “Body weight change rate” value [46] was −4.63% and the Body weight [47] was 415.6 ± 25.4 g. The “Body weight change rate” value [47] was −5.29%, the Body weight [48] was 442.1 ± 24.4 g and the “Body weight change rate” value [48] was −4.22%. For the same compound, the Body weight [49] was 243.6 ± 12.3 g, the “Body weight change rate” value [49] was −0.12% and the Body weight [50] was 247.3 ± 10.6 g. The “Body weight change rate” value [50] was −5.86%, the Body weight [51] was 281.5 ± 15.7 g and the “Body weight change rate” value [51] was −3.20%. The Body weight [52] was 297.1 ± 19.6 g, the “Body weight change rate” value [52] was −3.32% and the Body weight [53] was 313.4 ± 22.6 g. The “Body weight change rate” value [53] was −2.70%, the Body weight [54] was 325.9 ± 21.5 g and the “Body weight change rate” value [54] was −2.34%. For the same compound, the Body weight [55] was 339.3 ± 23.2 g, the “Body weight change rate” value [55] was −3.22% and the Body weight [56] was 213.2 ± 9.4 g. The “Body weight change rate” value [56] was 0.66%, the Body weight [57] was 361.2 ± 14.2 g and the “Body weight change rate” value [57] was −6.55%. The Body weight [58] was 388.0 ± 14.5 g, the “Body weight change rate” value [58] was −6.44% and the Body weight [59] was 416.4 ± 19.3 g. For the same compound, the “Body weight change rate” value [59] was −5.10%, the Body weight [60] was 444.3 ± 23.9 g and the “Body weight change rate” value [60] was −3.75%. For the same compound, the Body weight [61] was 234.0 ± 21.8 g, the “Body weight change rate” value [61] was −4.06% and the Body weight [62] was 249.9 ± 31.9 g. For the same compound, the “Body weight change rate” value [62] was −4.87%, the Body weight [63] was 272.4 ± 27.9 g and the “Body weight change rate” value [63] was −6.33%. The Body weight [64] was 281.1 ± 31.2 g, the “Body weight change rate” value [64] was −8.53% and the Body weight [65] was 297.6 ± 36.8 g. The “Body weight change rate” value [65] was −7.61%, the Body weight [66] was 299.3 ± 36.1 g and the “Body weight change rate” value [66] was −10.31%. The Body weight [67] was 315.4 ± 36.4 g, the “Body weight change rate” value [67] was −10.04% and the Body weight [68] was 213.9 ± 12.9 g. For the same compound, the “Body weight change rate” value [68] was 0.99%, the Body weight [69] was 329.2 ± 48.5 g and the “Body weight change rate” value [69] was −14.83%. For the same compound, the Body weight [70] was 365.9 ± 50.0 g, the “Body weight change rate” value [70] was −11.77% and the Body weight [71] was 386.7 ± 51.8 g. For the same compound, the “Body weight change rate” value [71] was −11.87%, the Body weight [72] was 413.2 ± 56.3 g and the “Body weight change rate” value [72] was −10.49%.
